# Reference: patent US20250000846A1, “METHODS OF TREATMENT OR PREVENTION OF ACUTE BRAIN OR NERVE INJURIES” (Annovis Bio, Inc., priority 2015, published 2025)
# Key:
# [1] = system: rats subjected to mild traumatic brain injury; assay: Working memory test in Morris water maze after fluid percussion injury; format: in vivo
# Method: The vehicle or posiphen tartrate treated rats from Example 2 were also subjected to working memory test in Morris water maze. Each of the rats was individually tested in the Morris water maze, which had 4 release points for putting the rat into the water and 4 platforms for the rat to swim to. For a total of 3 consecutive days (on one and two days before the last vehicle or posiphen treatment, and also on the day of the last vehicle or posiphen treatment before euthanasia), the rats were tested on their ability to find the 4 platform positions, using paired trials (4 paired trials per day). In each pair of the trials, the first trial was the learning trial, for the rat to learn the position of a platform, and the second trial was the memory trial for testing the memory of the rat to swim to the platform that the rat learned in the learning trial. In the learning trial, each of the rats was allowed a maximum swim time of 90 seconds to swim to the platform, and guided to the platform if needed after 90 seconds. The memory trial was started 5 seconds after the completion of the learning trial and the time for the rat to reach the platform by swimming in the maze in the memory trial was recorded. The 4 platform positions were switched after every pair of trials. The time interval between the learning trials of two consecutive pairs of trials in a day was 5 minutes. […]
# [2] = system: TH+ terminals in the striatum; assay: Fluid percussion injury (mild TBI), tyrosine hydroxylase (TH) immunoreactivity in striatum; format: in vivo, rats
# Method: Rats were subjected to fluid percussion injury (FPI) or sham operation to one side of the brain using the same procedures described in Griesbach et al (Brain Research, 1288: 105-115,2009, PMCID:PMC2735616) and Hutson et al (J. Neurotrauma, Jun. 6, 2011; PMID:21644813). […] About 5 to 30 minutes after FPI or sham operation, the rats were administered with saline or posiphen tartrate at a dose of 2.5, 5 or 10 mg/kg body weight intraperitoneally and also daily for the next 28 to 32 days. At 90 minutes after the last saline or posiphen treatment, all the rats were sacrificed and sections of the brain of each of the rats were stained for tyrosine hydroxylase (TH), wherein TH stains only live cells. The amounts of TH immunoreactivity in the whole striatum of the brain slices were measured, Stereological analysis of dopaminergic (DA) neurons in the substantia nigra was conducted to determine whether posiphen would block the TBI-induced loss of DA neurons ipsilateral and contralateral to the FPI injury, using procedures described in Johnson et al (Brain Pathol. Jun. 29, 2011, doi: 10.1111/j.1750-3639.2011.00513.x) and Hoshino et al (Neurol. Med. Chir. (Tokyo), 2003 April; 43 (4): 165-74). The groups of rats included the rats with LOC above/at the median value. In FIG. 2, the sham operated group was compared with the vehicle group with two-way ANOVA, Bonferroni comparisons, wherein *p<0.05. In FIG. 3, the vehicle group was compared with the posiphen-treatment groups with one-way ANOVA, Bonferroni comparisons, wherein ^#p<0.05.
# [3] = system: IBA-1+ microglia cells in the substantia nigra; assay: Fluid percussion injury, microglial activation by diameter of IBA-1-positive cells in substantia nigra; format: in vivo, rats; settings: 10 mg/kg
# Method: Because FPI can induce microglial activation according to Hutson et al (J. Neurotrauma, Jun. 6, 2011; PMID:21644813), whether posiphen would reverse this pathological response using quantitative measures was tested in the vehicle or posiphen tartrate treated (10 mg/kg) rats from Example 2 (part of the brain from each of the euthanized rat was stained for tyrosine hydroxylase in Example 2 and another part of the brain was stained for microglia in Example 3). Microglial activation was assessed by quantitative measure of the diameter of IBA-1-positive cells, wherein IBA-1 stands for ionized calcium adaptor binding protein.
# Analysis was done on a Leica DM-LB microscope with a Ludl XYZ motorized stage and z-axis microcator (MT12, Heidenheim, Traunreut, Germany) using StereoInvestigator software
# (MicroBrightField, Colchester, VT). A contour was drawn to delineate the substantia nigra under the 5× objective lens to ensure anatomical accuracy. Following delineation, the diameters of microglial cell bodies were measured in the first counting frame (100 μm) and then in every fifth counting frame at 40× magnification. This sampling frequency was chosen in order to count approximately 30-50 IBA-1+ cells in each side of the substantia nigra. The first counting frame was always positioned in the upper left corner of the contour and systematically moved from left to right and from top to bottom until the entire delineated contour region was sampled. The number of IBA-1+ microglia cells with cell diameters ranging from 1 μm to 14 μm was then normalized to the total number counted in each section and expressed as a percentage of total microglia. The results are shown in FIG. 4 (wherein the percent of IBA-1+ cells was plotted on the vertical axis, and the microglial cell diameter in um was plotted on the horizontal axis). In FIG. 4, the blank portion of each data bar represents the mean % of IB A-1+ cells with the solid or striped portion at the top of the bar representing the 95% confidence interval. In each pair of data bars in FIG. 4, the bar on the left having a solid portion at the top represents data from the vehicle-treated group, while the bar on the right having a striped portion at the top represents data from the 10 mg/kg posiphen-treated group, wherein the data of the posiphen-treated group (the bar on the right) were compared with the data of the vehicle-treated group (the bar on the left) with Bootstrapping method. The asterisks (*) at the top of some of the bars of the 10 mg/kg posiphen-treated group indicate statistical significance at p<0.05 when compared with the data of the corresponding bar of the vehicle-treated group as analyzed with the Bootstrapping method. Posiphen increased the number of resting microglia and reduced the number of activated microglia.
# [4] = system: retinal neurons; assay: Retinal ischemia-reperfusion (IR), Cell Death ELISA of retina; format: in vivo, Sprague-Dawley rats; settings: posiphen tartrate 30 mg/kg oral gavage once per day
# From the text: IR is a well-established experimental model of glaucoma as well as neuronal cell death in other retinal diseases. IR was induced on one eye of each rat while the opposite eye served as an internal control. Transient IR was induced by raising the intraocular pressure by a controlled micro-injection of saline into the anterior chamber of the eye. This approach is well established to induce large amounts of apoptotic cell death in the retina, beginning within hours after the reperfusion and continuing for several days, leading to a loss of about 50% of the retina. There would also be a dramatic and persistent increase in the permeability of the vasculature of the inner retina during this period, which may lead to edema.
# Adult male Sprague-Dawley rats (approx. 450 g, n=8) were housed under normal 12 hr light/dark conditions with free access to food and water. Rats were given posiphen tartrate (30 mg/kg body weight, delivered in 15 mg/ml water) or an equivalent volume of water (vehicle) by oral gavage once per day. Gavage was performed daily over three days and then on the fourth day IR was induced in anesthetized rats (ketamine:xylazine, 100:10 mg/kg, i.p.). […] The retinas were homogenized and fractionated to obtain a cytoplasmic sample which was assessed for nucleosome content in duplicate, using the Cell Death ELISA (Roche). Data were averaged and expressed as optical density (OD). […]
smiles,measurement,setting,value
"CN1CC[C@]2(C)c3cc(OC(=O)Nc4ccccc4)ccc3N(C)C12 (stereo partly drawn) [posiphen, (3aR)-1,3a,8-trimethyl-1,2,3,3a,8,8a-hexahydropyrrolo[2,3-b]indol-5-yl phenylcarbamate]",latency to find the platform versus vehicle-treated group,"[1]; 2.5 mg/kg and 5 mg/kg, p=0.0961",non-significant trend toward a reduction
same,latency to reach the platform in memory trials versus vehicle-treated group,"[1]; 10 mg/kg, p=0.0335",amelioration of this deficit
same,number of surviving cells in the ipsilateral area of the brain (striatum),"[2]; 2.5, 5 and 10 mg/kg i.p. daily for 28 to 32 days, all 3 doses",statistically significant increase
same,TH+ fluorescence intensity versus vehicle-treated group,"[2]; all posiphen-treated groups (2.5, 5, 10 mg/kg), one-way ANOVA, p<0.05",significantly higher
same,number of nerve cells of the striatum in the contralateral part of the brain,[2]; highest dose of 10 mg/kg i.p. daily,an increase
same,"protection of the TH+ cells in ipsilateral striatum (whole, rostral, medial and caudal)","[2]; posiphen treated animals, ipsilateral side",full protection
same,FPI-induced decrease in the TH+ terminals in the striatum,"[2]; rat, in vivo",attenuated
same,brain inflammation after traumatic brain injury,[3],decreased
same,FPI-increased microglia activation in the substantia nigra ipsilateral to the injury,[3]; statistically significant,attenuated
same,number of activated microglia,[3]; versus vehicle-treated group,reduced
same,number of resting microglia,[3]; versus vehicle-treated group,increased
same,number of dead nerve cells in retina of IR eye (IR-Pos) versus opposite eye (control-Pos),[4],only slightly more
same,retinal neurons rescued,"[4]; eye subjected to transient IR (IR-Pos), N=6",72%
